Laboratory results taken from the NIST ThermoML archive (doi:10.1021/je700261b).
Numbers after ± are expanded uncertainties.

Experiment: xn = mol fraction of the nth substance listed
Conditions: Liquid

`CCCCO` [butan-1-ol] + O=C=O showed a mass density (362.67 K, 7985 kPa, x2 = 0.0251) of 762.59 ± 0.54 kg/m3, a mass density (362.67 K, 9006 kPa, x2 = 0.0251) of 763.64 ± 0.55 kg/m3 and a mass density (362.67 K, 10031 kPa, x2 = 0.0251) of 764.7 ± 0.56 kg/m3. For the same molecule, the mass density (362.67 K, 11027 kPa, x2 = 0.0251) was 765.69 ± 0.58 kg/m3, the mass density (362.67 K, 12000 kPa, x2 = 0.0251) was 766.65 ± 0.59 kg/m3 and the mass density (362.67 K, 13054 kPa, x2 = 0.0251) was 767.68 ± 0.6 kg/m3. The mass density (362.67 K, 14008 kPa, x2 = 0.0251) was 768.61 ± 0.61 kg/m3, the mass density (362.67 K, 14993 kPa, x2 = 0.0251) was 769.57 ± 0.62 kg/m3 and the mass density (362.67 K, 16000 kPa, x2 = 0.0251) was 770.52 ± 0.63 kg/m3. The mass density (362.67 K, 17046 kPa, x2 = 0.0251) was 771.48 ± 0.64 kg/m3, the mass density (362.67 K, 17989 kPa, x2 = 0.0251) was 772.34 ± 0.65 kg/m3 and the mass density (362.67 K, 19009 kPa, x2 = 0.0251) was 773.27 ± 0.66 kg/m3. The mass density (362.67 K, 20045 kPa, x2 = 0.0251) was 774.19 ± 0.67 kg/m3, the mass density (362.67 K, 21017 kPa, x2 = 0.0251) was 775.08 ± 0.69 kg/m3 and the mass density (362.67 K, 22075 kPa, x2 = 0.0251) was 775.99 ± 0.7 kg/m3. It also gave a mass density (362.67 K, 23006 kPa, x2 = 0.0251) of 776.82 ± 0.71 kg/m3, a mass density (362.67 K, 24007 kPa, x2 = 0.0251) of 777.69 ± 0.72 kg/m3 and a mass density (362.67 K, 25062 kPa, x2 = 0.0251) of 778.61 ± 0.73 kg/m3. It also gave a mass density (362.69 K, 2045 kPa, x2 = 0.0857) of 757.33 ± 0.49 kg/m3, a mass density (362.69 K, 3006 kPa, x2 = 0.0857) of 758.53 ± 0.49 kg/m3 and a mass density (362.69 K, 3982 kPa, x2 = 0.0857) of 759.72 ± 0.5 kg/m3. The mass density (362.69 K, 5010 kPa, x2 = 0.0857) was 760.91 ± 0.51 kg/m3, the mass density (362.69 K, 5976 kPa, x2 = 0.0857) was 762.09 ± 0.52 kg/m3 and the mass density (362.69 K, 6994 kPa, x2 = 0.0857) was 763.25 ± 0.53 kg/m3. It also gave a mass density (362.69 K, 7999 kPa, x2 = 0.0857) of 764.42 ± 0.54 kg/m3, a mass density (362.69 K, 8998 kPa, x2 = 0.0857) of 765.51 ± 0.55 kg/m3 and a mass density (362.69 K, 10048 kPa, x2 = 0.0857) of 766.67 ± 0.56 kg/m3. It also gave a mass density (362.69 K, 11028 kPa, x2 = 0.0857) of 767.74 ± 0.57 kg/m3, a mass density (362.69 K, 11999 kPa, x2 = 0.0857) of 768.75 ± 0.58 kg/m3 and a mass density (362.69 K, 12994 kPa, x2 = 0.0857) of 769.85 ± 0.59 kg/m3. It also gave a mass density (362.69 K, 14018 kPa, x2 = 0.0857) of 770.91 ± 0.6 kg/m3, a mass density (362.69 K, 15014 kPa, x2 = 0.0857) of 771.91 ± 0.62 kg/m3 and a mass density (362.69 K, 15995 kPa, x2 = 0.0857) of 772.93 ± 0.63 kg/m3. It also gave a mass density (362.69 K, 17061 kPa, x2 = 0.0857) of 773.98 ± 0.64 kg/m3, a mass density (362.69 K, 18008 kPa, x2 = 0.0857) of 774.96 ± 0.65 kg/m3 and a mass density (362.69 K, 19008 kPa, x2 = 0.0857) of 775.88 ± 0.66 kg/m3. It also gave a mass density (362.69 K, 20060 kPa, x2 = 0.0857) of 776.81 ± 0.67 kg/m3, a mass density (362.69 K, 21044 kPa, x2 = 0.0857) of 777.83 ± 0.68 kg/m3 and a mass density (362.69 K, 22045 kPa, x2 = 0.0857) of 778.82 ± 0.69 kg/m3. For the same molecule, the mass density (362.69 K, 23036 kPa, x2 = 0.0857) was 779.68 ± 0.7 kg/m3, the mass density (362.69 K, 24037 kPa, x2 = 0.0857) was 780.65 ± 0.71 kg/m3 and the mass density (362.69 K, 25015 kPa, x2 = 0.0857) was 781.57 ± 0.72 kg/m3. It also gave a mass density (362.74 K, 14112 kPa, x2 = 0.4972) of 771.83 ± 0.61 kg/m3, a mass density (362.74 K, 15096 kPa, x2 = 0.4972) of 773.91 ± 0.62 kg/m3 and a mass density (362.74 K, 15985 kPa, x2 = 0.4972) of 775.76 ± 0.63 kg/m3. It also gave a mass density (362.74 K, 17043 kPa, x2 = 0.4972) of 777.9 ± 0.63 kg/m3, a mass density (362.74 K, 18079 kPa, x2 = 0.4972) of 779.94 ± 0.64 kg/m3 and a mass density (362.74 K, 19117 kPa, x2 = 0.4972) of 781.94 ± 0.65 kg/m3. For the same molecule, the mass density (362.74 K, 20051 kPa, x2 = 0.4972) was 783.68 ± 0.66 kg/m3, the mass density (362.74 K, 21025 kPa, x2 = 0.4972) was 785.45 ± 0.67 kg/m3 and the mass density (362.74 K, 22018 kPa, x2 = 0.4972) was 787.27 ± 0.68 kg/m3. The mass density (362.74 K, 23076 kPa, x2 = 0.4972) was 789.13 ± 0.69 kg/m3, the mass density (362.74 K, 24063 kPa, x2 = 0.4972) was 790.85 ± 0.69 kg/m3 and the mass density (362.74 K, 25140 kPa, x2 = 0.4972) was 792.64 ± 0.7 kg/m3. It also gave a mass density (362.75 K, 21992 kPa, x2 = 0.8663) of 710.63 ± 1.1 kg/m3, a mass density (362.75 K, 23010 kPa, x2 = 0.8663) of 720.36 ± 0.88 kg/m3 and a mass density (362.75 K, 24074 kPa, x2 = 0.8663) of 729.68 ± 0.87 kg/m3. For the same molecule, the mass density (362.75 K, 25130 kPa, x2 = 0.8663) was 738.23 ± 0.89 kg/m3, the mass density (362.76 K, 15085 kPa, x2 = 0.5965) was 765.37 ± 0.63 kg/m3 and the mass density (362.76 K, 16042 kPa, x2 = 0.5965) was 768.34 ± 0.64 kg/m3. The mass density (362.76 K, 17060 kPa, x2 = 0.5965) was 771.36 ± 0.65 kg/m3, the mass density (362.76 K, 18019 kPa, x2 = 0.5965) was 774.09 ± 0.65 kg/m3 and the mass density (362.76 K, 19023 kPa, x2 = 0.5965) was 776.91 ± 0.66 kg/m3. It also gave a mass density (362.76 K, 20064 kPa, x2 = 0.5965) of 779.68 ± 0.71 kg/m3, a mass density (362.76 K, 21026 kPa, x2 = 0.5965) of 782.15 ± 0.69 kg/m3 and a mass density (362.76 K, 22023 kPa, x2 = 0.5965) of 784.67 ± 0.7 kg/m3. For the same molecule, the mass density (362.76 K, 23058 kPa, x2 = 0.5965) was 787.18 ± 0.7 kg/m3, the mass density (362.76 K, 24078 kPa, x2 = 0.5965) was 789.61 ± 0.71 kg/m3 and the mass density (362.76 K, 25110 kPa, x2 = 0.5965) was 791.98 ± 0.72 kg/m3. For the same molecule, the mass density (362.78 K, 6018 kPa, x2 = 0.1842) was 761.83 ± 0.52 kg/m3, the mass density (362.78 K, 6995 kPa, x2 = 0.1842) was 763.16 ± 0.53 kg/m3 and the mass density (362.78 K, 8099 kPa, x2 = 0.1842) was 764.64 ± 0.54 kg/m3. The mass density (362.78 K, 9002 kPa, x2 = 0.1842) was 765.81 ± 0.55 kg/m3, the mass density (362.78 K, 10022 kPa, x2 = 0.1842) was 767.06 ± 0.56 kg/m3 and the mass density (362.78 K, 10995 kPa, x2 = 0.1842) was 768.34 ± 0.57 kg/m3. The mass density (362.78 K, 12059 kPa, x2 = 0.1842) was 769.68 ± 0.58 kg/m3, the mass density (362.78 K, 13056 kPa, x2 = 0.1842) was 770.87 ± 0.59 kg/m3 and the mass density (362.78 K, 14029 kPa, x2 = 0.1842) was 772.05 ± 0.6 kg/m3. The mass density (362.78 K, 15026 kPa, x2 = 0.1842) was 773.24 ± 0.61 kg/m3, the mass density (362.78 K, 16010 kPa, x2 = 0.1842) was 774.38 ± 0.62 kg/m3 and the mass density (362.78 K, 17020 kPa, x2 = 0.1842) was 775.53 ± 0.63 kg/m3. For the same molecule, the mass density (362.78 K, 18041 kPa, x2 = 0.1842) was 776.68 ± 0.65 kg/m3, the mass density (362.78 K, 19031 kPa, x2 = 0.1842) was 777.79 ± 0.66 kg/m3 and the mass density (362.78 K, 20045 kPa, x2 = 0.1842) was 778.9 ± 0.67 kg/m3.
